Reference: patent publication US20250122155A1, “NOVEL INDOLE DERIVATIVE, PHARMACEUTICAL COMPOSITION COMPRISING SAME, AND USE THEREOF” (MITOIMMUNE THERAPEUTICS INC., priority 2021, published 2025)

What follows are molecules tested on H9C2 cells (assay: Protective effect on heart cells against t-BHP (LDH release)). Details: H9C2, t-BHP 400 μM, 2 hours, read-out: EC50 (μM), Cell Protection Effect against t-BHP in Heart Cells.
Type: cell-based
Method: In order to identify the protective effect with regard to heart cells, H9C2 cells were divided into 96-well plates by 1.5×10^4, and cultured for 24 hours. The respective wells were treated with compounds of the examples 3× serial diluted to final concentrations of 30, 10, 3, 1, 0.3, 0.1, 0.03 and 0.01 μM, then incubated for 15 to 20 minutes. After treating with t-BHP with a final concentration of 400 μM, incubation was performed for 2 hours. To confirm the protective effect of each compound, a Cytotoxicity LDH assay kit [Dojindo; CK12] was used to measure the degree of extracellular secretion of LDH. After 2-hour treatment of the cells with t-BHP was completed, 100 μL each of the supernatant in which the cells were placed was collected and moved to a new 96-well plate. 100 μL/well of the assay buffer included in the kit (same amount as the sample) was added, followed by wrapping with foil and reacting for 30 minutes at room temperature. Observing the change of color in the sample, 50 μL/well of stop solution was added, then an iD3 spectrometer was used to measure absorbance at 490 nm and calculate the EC50 values. The EC50 of the compounds of the examples is preferably no more than 1.0 μM, and more preferably no more than 0.3 μM.
Molecule `COCCOCc1cc(NC2CCC(O)CC2)c2[nH]c(-c3ccccc3)cc2c1` (single isomer, unassigned) [Example 69-1, 4-((5-((2-methoxyethoxy)methyl)-2-phenyl-1H-indol-7-yl)amino)cyclohexan-1-ol] has an EC50 of at most 0.3 µM.
With `COCCOCc1cc(NC2CCC(O)CC2)c2[nH]c(-c3ccccc3)cc2c1` (single isomer, unassigned) [Example 69-2, 4-((5-((2-methoxyethoxy)methyl)-2-phenyl-1H-indol-7-yl)amino)cyclohexan-1-ol] the EC50 was at most 0.3 µM.
Work on `COCCOCc1cc(NC2CCC(C)(O)CC2)c2[nH]c(-c3ccccc3)cc2c1` (single isomer, unassigned) [Example 70-1, 4-((5-((2-methoxyethoxy)methyl)-2-phenyl-1H-indol-7-yl)amino)-1-methylcyclohexane-1-ol] yielded an EC50 of at most 0.3 µM.
Work on `COCCOCc1cc(NC2CCC(C)(O)CC2)c2[nH]c(-c3ccccc3)cc2c1` (single isomer, unassigned) [Example 70-2, 4-((5-((2-methoxyethoxy)methyl)-2-phenyl-1H-indol-7-yl)amino)-1-methylcyclohexane-1-ol] yielded an EC50 of at most 0.3 µM.
In the case of `COCCOCc1cc(N(C2CCCC2)C2CCCC2)c2[nH]c(-c3ccccc3)cc2c1` [Example 3, N,N-dicyclopentyl-5-(2-methoxyethoxymethyl)-2-phenyl-1H-indol-7-amine], the EC50 was at most 0.3 µM.
With `COCCOCc1cc(N2CCOCC2)c2[nH]c(-c3ccccc3)cc2c1` [Example 5, 4-[5-(2-methoxyethoxymethyl)-2-phenyl-1H-indol-7-yl]morpholine] the EC50 was over 1 µM.
Molecule `COCCOCc1cc(NC2CCOC2)c2[nH]c(-c3ccccc3)cc2c1` (stereo not shown) [Example 6, 5-(2-methoxyethoxymethyl)-2-phenyl-N-tetrahydrofuran-3-yl-1H-indol-7-amine] has an EC50 of at most 0.3 µM.
With `COCCOCc1cc(NC2COC2)c2[nH]c(-c3ccccc3)cc2c1` [Example 7, 5(2-methoxyethoxymethyl)-N-(oxetane-3-yl)-2-phenyl-1H-indol-7-amine] the EC50 was at most 0.3 µM.
For `COCCOCc1cc(NC2CCC2)c2[nH]c(-c3ccccc3)cc2c1` [Example 8, N-cyclobutyl-5-(2-methoxyethoxymethyl)-2-phenyl-1H-indol-7-amine], the EC50 was at most 0.3 µM.
For `COCCOCc1cc(N(C2CCC2)C2CCC2)c2[nH]c(-c3ccccc3)cc2c1` [Example 9, N,N-dicyclobutyl-5-(2-methoxyethoxymethyl)-2-phenyl-1H-indol-7-amine], the EC50 was at most 0.3 µM.
Work on `COCCOCc1cc(NC2CCC2)c2c(c1)cc(-c1ccccc1)n2C` [Example 10, N-cyclobutyl-5-(2-methoxyethoxymethyl)-1-methyl-2-phenyl-indol-7-amine] yielded an EC50 of 0.3 to 1 µM.
`COCCOCc1cc(NCC(C)(C)C)c2[nH]c(-c3ccccc3)cc2c1` [Example 11, N-(2,2-dimethylpropyl)-5-(2-methoxyethoxymethyl)-2-phenyl-1H-indol-7-amine] gave an EC50 of at most 0.3 µM.
Molecule `COCCOCc1cc(NCC2CCCC2)c2[nH]c(-c3ccccc3)cc2c1` [Example 12, N-(cyclopentylmethyl)-5-(2-methoxyethoxymethyl)-2-phenyl-1H-indol-7-amine] has an EC50 of at most 0.3 µM.
With `COCCOCc1cc(NC2CCCCC2)c2[nH]c(-c3ccccc3)cc2c1` [Example 13, N-cyclohexyl-5-(2-methoxyethoxymethyl)-2-phenyl-1H-indol-7-amine] the EC50 was at most 0.3 µM.
With `COCCOCc1cc(NC2CCC(F)(F)CC2)c2[nH]c(-c3ccccc3)cc2c1` [Example 14, N-(4,4-difluorocyclohexyl)-5-(2-methoxyethoxymethyl)2-phenyl-1H-indol-7-amine] the EC50 was at most 0.3 µM.
In the case of `COCCOCc1cc(NCC(C)C)c2[nH]c(-c3ccccc3)cc2c1` [Example 15, N-isobutyl-5-(2-methoxyethoxymethyl)-2-phenyl-1H-indol-7-amine], the EC50 was at most 0.3 µM.
`CCCNc1cc(COCCOC)cc2cc(-c3ccccc3)[nH]c12` [Example 16, 5-(2-methoxyethoxymethyl)-2-phenyl-N-propyl-1H-indol-7-amine] showed an EC50 of at most 0.3 µM.
In the case of `CCCCNc1cc(COCCOC)cc2cc(-c3ccccc3)[nH]c12` [Example 17, N-butyl-5-(2-methoxyethoxymethyl)-2-phenyl-1H-indol-7-amine], the EC50 was at most 0.3 µM.
With `CCC(CC)CNc1cc(COCCOC)cc2cc(-c3ccccc3)[nH]c12` [Example 18, N-(2-ethylbutyl)-5-(2-methoxyethoxymethyl)-2-phenyl-1H-indol-7-amine] the EC50 was at most 0.3 µM.
In the case of `COCCOCc1cc(NCCC(C)C)c2[nH]c(-c3ccccc3)cc2c1` [Example 19, N-isopentyl-5-(2-methoxyethoxymethyl)-2-phenyl-1H-indol-7-amine], the EC50 was at most 0.3 µM.
Molecule `CCC(C)Nc1cc(COCCOC)cc2cc(-c3ccccc3)[nH]c12` (stereo not shown) [Example 20, 5-(2(methoxyethoxymethyl)-2-phenyl)-N-sec-butyl-1H-indol-7-amine] has an EC50 of at most 0.3 µM.
`COCCOCc1cc(NCC2CC2)c2[nH]c(-c3ccccc3)cc2c1` [Example 21] showed an EC50 of at most 0.3 µM.
In the case of `CCCC(C)Nc1cc(COCCOC)cc2cc(-c3ccccc3)[nH]c12` (stereo not shown) [Example 22, 5-(2-methoxyethoxymethyl)-N-(1-methylbutyl)-2-phenyl-1H-indol-7-amine], the EC50 was at most 0.3 µM.
In the case of `CCC(CC)Nc1cc(COCCOC)cc2cc(-c3ccccc3)[nH]c12` [Example 23, N-(1-ethylpropyl)-5-(2-methoxyethoxymethyl)-2-phenyl-1H-indol-7-amine], the EC50 was at most 0.3 µM.
In the case of `COCCOCc1cc(/N=C(/C)C(F)(F)F)c2[nH]c(-c3ccccc3)cc2c1` [Example 24, (E,Z)-1,1,1-trifluoro-N-[5-(2-methoxyethoxymethyl)-2-phenyl-1H-indol-7-yl]propane-2-imine], the EC50 was at most 0.3 µM.
In the case of `COCCOCc1cc(NC(C)C(F)(F)F)c2[nH]c(-c3ccccc3)cc2c1` (stereo not shown) [Example 25, 5-(2-methoxyethoxymethyl)-2-phenyl-N-(2,2,2-trifluoro-1-methyl-ethyl)-1H-indol-7-amine], the EC50 was at most 0.3 µM.
With `COCCOCc1cc(NC(C)C(C)C)c2[nH]c(-c3ccccc3)cc2c1` (stereo not shown) [Example 26, N-(1,2-dimethylpropyl)-5-(2-methoxyethoxymethyl)-2-phenyl-1H-indol-7-amine] the EC50 was at most 0.3 µM.
In the case of `COCCOCc1cc(NC(C)C)c2[nH]c(-c3ccccc3)cc2c1` [Example 27, N-isopropyl-5-(2-methoxyethoxymethyl)-2-phenyl-1H-indol-7-amine], the EC50 was at most 0.3 µM.
Work on `COCCOCc1cc(NCc2ccccc2)c2[nH]c(-c3ccccc3)cc2c1` [Example 28, N-benzyl-5-(2-methoxyethoxymethyl)-2-phenyl-1H-indol-7-amine] yielded an EC50 of at most 0.3 µM.
For `COCCOCc1cc(NC2CCN(C(=O)OC(C)(C)C)CC2)c2[nH]c(-c3ccccc3)cc2c1` [Example 29, tert-butyl 4-[[5-(2-methoxyethoxymethyl)-2-phenyl-1H-indol-7-yl]amino]piperidine-1-carboxylate], the EC50 was at most 0.3 µM.
In the case of `COCCOCc1cc(NC2CCN(S(C)(=O)=O)CC2)c2[nH]c(-c3ccccc3)cc2c1` [Example 31, 5-(2-methoxyethoxymethyl)-N-(1-methylsulfonyl-4-piperidyl)-2-phenyl-1H-indol-7-amine], the EC50 was at most 0.3 µM.
`COCCOCc1cc(NC2CCS(=O)(=O)CC2)c2[nH]c(-c3ccccc3)cc2c1` [Example 32, N-(1,1-dioxothian-4-yl)-5-(2-methoxyethoxymethyl)-2-phenyl-1H-indol-7-amine] showed an EC50 of at most 0.3 µM.
`COCCOCc1cc(NC2CC[S+]([O-])CC2)c2[nH]c(-c3ccccc3)cc2c1` (stereo not shown) [Example 33, 5-(2-methoxyethoxymethyl)-N-(1-oxothian-4-yl)-2-phenyl-1H-indol-7-amine] gave an EC50 of at most 0.3 µM.
`COCCOCc1cc(NC2CCN(C)CC2)c2[nH]c(-c3ccccc3)cc2c1` [Example 34, 5-(2-methoxyethoxymethyl)-N-(1-methyl-4-piperidyl)-2-phenyl-1H-indol-7-amine] was tested, and the EC50 was at most 0.3 µM.
In the case of `CCOCCOCc1cc(NC2CCOCC2)c2[nH]c(-c3ccccc3)cc2c1` [Example 35, 5-(2-ethoxyethoxymethyl)-2-phenyl-N-tetrahydropyran-4-yl-1H-indol-7-amine], the EC50 was at most 0.3 µM.
With `CC(C)OCCOCc1cc(NC2CCCC2)c2[nH]c(-c3ccccc3)cc2c1` [Example 37, N-cyclopentyl-5-(2-isopropoxyethoxymethyl)-2-phenyl-1H-indol-7-amine] the EC50 was at most 0.3 µM.
Work on `CC(C)OCCOCc1cc(NC2CCOCC2)c2[nH]c(-c3ccccc3)cc2c1` [Example 38, 5-(2-isopropoxyethoxymethyl)-2-phenyl-Ntetrahydropyran-4-yl-1H-indol-7-amine] yielded an EC50 of at most 0.3 µM.
`COCCOCCOCc1cc(NC2CCOCC2)c2[nH]c(-c3ccccc3)cc2c1` [Example 40, 5-[2-(2-methoxyethoxy)ethoxymethyl]-2-phenyl-N-tetrahydropyran-4-yl-1H-indol-7-amine] showed an EC50 of 0.3 to 1 µM.
`COCCOCc1cc(NC2CCN(C(=O)Nc3cc(C(F)(F)F)cc(C(F)(F)F)c3)CC2)c2[nH]c(-c3ccccc3)cc2c1` [Example 41, N-[3,5-bis(trifluoromethyl)phenyl]-4-[[5-(2-methoxyethoxymethyl)-2-phenyl-1H-indol-7-yl]amino]piperidine-1-carboxamide] was tested, and the EC50 was over 1 µM.
Molecule `COCCOCc1cc(NC2CCN(C(=O)Nc3cc(Cl)cc(Cl)c3)CC2)c2[nH]c(-c3ccccc3)cc2c1` [Example 42, N-(3,5-dichlorophenyl)-4-[[5-(2-methoxyethoxymethyl)-2-phenyl-1H-indol-7-yl]amino]piperidine-1-carboxamide] has an EC50 of 0.3 to 1 µM.
